In PubChem BioAssay (NCI) one finds TGI and GI50 data, which are given here for ten molecules.

“And” between values parts separate entries of the source, which are not always exact repeats. Equal entries are not always repeated.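 All cell lines were grown in 96-well plates and treated with compound for 48 hours. At the GI50, growth is halved. Definition used: TGI = concentration required for complete inhibition of growth.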 Some results are limits rather than exact numbers.

Some test systems named below: UACC-62 melanoma; OVCAR-3 ovarian; OVCAR-8 ovarian; SW-620 colon; SR leukemia; 786-0 renal; HCC-2998 colon; NCI-H23 lung; SF-539 CNS; K-562 leukemia.
Assay in all cases: NCI tumour cell line growth inhibition, 48 h

As for `COc1ccc(CN2C(=O)C(Cc3cc(OC)c(OC)c(C)c3OC)NC(=O)/C2=C/c2cc(OC)c(OC)c(C)c2OC)cc1` (stereo not given), the TGI in the assay with UACC-62 melanoma was greater than 100 µM; in the assay on OVCAR-3 ovarian, 82.2 µM; with OVCAR-8 ovarian it was greater than 100 µM; in the assay on SW-620 colon, greater than 100 µM; with SR leukemia, 60.7 µM; in the assay on 786-0 renal, greater than 100 µM. The TGI with HCC-2998 colon is 90.9 µM; in the assay on NCI-H23 lung, greater than 100 µM; in the assay with SF-539 CNS, greater than 100 µM; in the assay on K-562 leukemia it was greater than 100 µM.

With `CC(C)(C)[Si](C)(C)OCC1CCC(n2cnc3c(=O)[nH]cnc32)O1` (stereo not given), the TGI in the assay with UACC-62 melanoma, in the assay with OVCAR-3 ovarian, in the assay on OVCAR-8 ovarian, with SW-620 colon, with SR leukemia and in the assay on 786-0 renal was greater than 100 µM throughout. For the same molecule, the TGI in the assay with HCC-2998 colon, with NCI-H23 lung, with SF-539 CNS and with K-562 leukemia was greater than 100 µM in each case.

Consider `N#CCCN(CCC#N)C(=O)c1cccc(C(=O)N(CCC#N)CCC#N)c1`, for which the TGI with UACC-62 melanoma is greater than 61.2 µM; in the assay with OVCAR-3 ovarian, greater than 100 µM; in the assay on OVCAR-8 ovarian, greater than 69.1 µM; in the assay with SW-620 colon, 26.5 µM; with SR leukemia, greater than 68.4 µM; in the assay with 786-0 renal it was greater than 100 µM. The TGI in the assay on HCC-2998 colon is greater than 100 µM; with NCI-H23 lung, greater than 56 µM; in the assay with SF-539 CNS, greater than 55.3 µM; in the assay on K-562 leukemia, greater than 100 µM.

Regarding `O=C(Cc1nc2ccccc2c(=O)n1-c1c(Cl)cccc1Cl)c1ccncc1`, the TGI in the assay with UACC-62 melanoma was 56.6 µM; with OVCAR-3 ovarian, 77.8 µM; in the assay with OVCAR-8 ovarian it was greater than 100 µM; in the assay on SW-620 colon, greater than 100 µM; in the assay with SR leukemia it was 39.8 µM; with 786-0 renal, 88.9 µM. The TGI in the assay on HCC-2998 colon was 44.2 µM; in the assay with NCI-H23 lung it was greater than 100 µM; in the assay on SF-539 CNS it was 34.5 µM; in the assay with K-562 leukemia, greater than 100 µM.

Take `COc1cc(NS(C)(=O)=O)ccc1Nc1c2ccccc2nc2c(C)cccc12`: the GI50 with UACC-62 melanoma is 0.182 µM and 0.211 µM; in the assay with OVCAR-3 ovarian, 0.794 µM and 0.933 µM; in the assay with OVCAR-8 ovarian, 0.233 µM and 0.23 µM; with SW-620 colon, 0.0825 µM and 0.123 µM; with SR leukemia, < 0.0145 µM and 0.013 µM; with 786-0 renal it was 0.16 µM and 0.17 µM. Also, the GI50 with HCC-2998 colon is 0.645 µM and 0.695 µM; in the assay with NCI-H23 lung, 0.134 µM and 0.191 µM; in the assay on SF-539 CNS, 0.102 µM and 0.123 µM; in the assay on K-562 leukemia, 0.272 µM and 0.276 µM. For the same molecule, the TGI in the assay on UACC-62 melanoma is 2.97 µM and 4.19 µM; in the assay on OVCAR-3 ovarian it was 2.35 µM and 2.94 µM; with OVCAR-8 ovarian, 7.08 µM and 11.6 µM; in the assay on SW-620 colon it was 3.4 µM and 4 µM; in the assay on SR leukemia, 6.75 µM and 2.16 µM; with 786-0 renal, 0.923 µM and 1.34 µM. For the same molecule, the TGI in the assay on HCC-2998 colon is 6.32 µM and 5.51 µM; in the assay with NCI-H23 lung, 2.88 µM and 11.4 µM; in the assay with SF-539 CNS, 0.699 µM and 0.584 µM; in the assay on K-562 leukemia it was > 37.8 µM and 11.8 µM.

For the molecule `NC(N)=NS(=O)(=O)c1ccc(Nc2c3ccccc3nc3c(C(=O)N4CCN(CCO)CC4)cccc23)cc1`, the TGI in the assay on UACC-62 melanoma, in the assay on OVCAR-3 ovarian, with OVCAR-8 ovarian, in the assay on SW-620 colon, with SR leukemia and with 786-0 renal was greater than 100 µM in each case. The TGI with HCC-2998 colon, with NCI-H23 lung, in the assay on SF-539 CNS and in the assay with K-562 leukemia was greater than 100 µM in each case.

Regarding `CN(CCC#N)c1ccc(/C=C(\C#N)c2cccc(C(F)(F)F)c2)cc1`, the GI50 in the assay with UACC-62 melanoma was 3.96 µM; in the assay with OVCAR-3 ovarian, 4.29 µM; in the assay with OVCAR-8 ovarian it was 3.99 µM; in the assay with SW-620 colon, 3.17 µM; in the assay with SR leukemia, 2.52 µM; with 786-0 renal it was 4.15 µM. The GI50 is 5.08 µM in the assay on HCC-2998 colon, 3.86 µM with NCI-H23 lung, 4.31 µM in the assay on SF-539 CNS and 2.69 µM with K-562 leukemia. For the same molecule, the TGI in the assay with UACC-62 melanoma, with OVCAR-3 ovarian, in the assay with OVCAR-8 ovarian, in the assay with SW-620 colon, with SR leukemia and with 786-0 renal was greater than 100 µM in each case. Besides, the TGI in the assay on HCC-2998 colon, with NCI-H23 lung, with SF-539 CNS and in the assay on K-562 leukemia was greater than 100 µM each time.

Take `CC1=CC[C@@H]2C(C)(C)C(=O)CC[C@@]2(C)[C@@H]1COc1ccc2ccc(=O)oc2c1`: the GI50 in the assay on UACC-62 melanoma is 5.22 µM; in the assay on OVCAR-3 ovarian, 10.1 µM; in the assay on OVCAR-8 ovarian, 5.69 µM; with SW-620 colon it was 24.9 µM; in the assay with SR leukemia it was 13.2 µM; in the assay on 786-0 renal it was 46.8 µM. Besides, the GI50 is 30.3 µM in the assay with HCC-2998 colon, 15.3 µM in the assay with NCI-H23 lung, 20.1 µM in the assay on SF-539 CNS and 7.02 µM with K-562 leukemia. In addition, the TGI with UACC-62 melanoma is 23.5 µM; in the assay on OVCAR-3 ovarian, 56.9 µM; in the assay with OVCAR-8 ovarian, 39 µM; in the assay with SW-620 colon, greater than 100 µM; in the assay on SR leukemia it was 68.5 µM; with 786-0 renal, greater than 100 µM. Besides, the TGI in the assay on HCC-2998 colon is greater than 100 µM; with NCI-H23 lung, 61.2 µM; in the assay with SF-539 CNS, 63.8 µM; in the assay on K-562 leukemia, 88.7 µM.

Consider `COc1cc(=O)oc(/C=C/C=O)c1C`, for which the TGI was 32.8 µM in the assay on UACC-62 melanoma; 33.4 µM with OVCAR-3 ovarian; 81.1 µM in the assay on OVCAR-8 ovarian; 37.6 µM in the assay on SW-620 colon; 7.6 µM with SR leukemia; 42 µM with 786-0 renal. Besides, the TGI in the assay on HCC-2998 colon was 32.2 µM; with NCI-H23 lung, 46.7 µM; in the assay on SF-539 CNS it was 34.2 µM; in the assay with K-562 leukemia it was greater than 100 µM.

For the molecule `C=C1C(=O)O[C@H]2[C@H]1CC/C(Cn1cc(CNCCc3c[nH]c4ccc(Cl)cc34)nn1)=C\CC[C@@]1(C)O[C@@H]21`, the GI50 in the assay with UACC-62 melanoma was 4.65 µM; with OVCAR-3 ovarian, 2.44 µM; in the assay on OVCAR-8 ovarian, 11.8 µM; in the assay on SW-620 colon it was 1.82 µM; in the assay with SR leukemia it was 3.01 µM; with 786-0 renal, 2.89 µM. Moreover, the GI50 was 20.3 µM in the assay on HCC-2998 colon, 17 µM in the assay with NCI-H23 lung, 4.23 µM in the assay with SF-539 CNS and 2.91 µM in the assay with K-562 leukemia. Besides, the TGI is 16.9 µM in the assay with UACC-62 melanoma; 6.5 µM in the assay with OVCAR-3 ovarian; 29.1 µM in the assay on OVCAR-8 ovarian; 3.88 µM with SW-620 colon; 9.66 µM in the assay on SR leukemia; 10.2 µM with 786-0 renal. In addition, the TGI with HCC-2998 colon worked out at 44.6 µM; in the assay with NCI-H23 lung it was 45.5 µM; with SF-539 CNS, 14.6 µM; in the assay with K-562 leukemia, 25.2 µM.
